In brackets after ≈: the same amount, converted by molar mass. Read-outs that look alike come from different tables or passages of the source.
Experiments:
[1] = tested on: HepG2 cells; format: cell-based
Description: Three lead compounds were identified in the first round of high throughput screening (700 compounds), which had minimal inhibitory concentrations (MIC) of 0.4-0.8 μg/mL after a six day exposure to drug (NRd6) in the model of non-replication at pH 5.0, and LD50's of 100 to >100 μg/mL against HepG2 cells (a 2 day exposure).
Furthermore, LD50 values were determined using a human hepatoma cell line (HepG2) using intracellular ATP levels as a measurement that correlated with cellular viability.

[2] = tested on: non-replicating M. tuberculosis; assay: microbe, parasite or virus in culture; format: cell-based, Mycobacterium tuberculosis; settings: for MIC: Mycobacterium tuberculosis
[3] = tested on: replicating M. tuberculosis; assay: MIC under replication (R) conditions; format: cell-based, Mycobacterium tuberculosis; settings: Mycobacterium tuberculosis
[4] = read-out: MIC NR at 0.01 Inoc. and 3 Day Exposure to Drug, 7 Day Outgrowth, Table 8, ranges from multiple assays
[5] = read-out: MIC NR at 0.01 Inoc. and 3 Day Exposure to Drug, 11 Day Outgrowth, Table 8, ranges from multiple assays
[6] = Table 8, ranges from multiple assays
[7] = 72 h, Table 9, 3 Day Exposure to Drug, read-out: MIC NR 0.01 Inoc.
[8] = 72 h, Table 9, 3 Day Exposure to Drug, read-out: MIC NR 0.1 Inoc.
[9] = read-out: minimum inhibitory concentration against replicating M. tuberculosis
[10] = 3,4-olefinic isomers, read-out: minimum inhibitory concentration against non-replicating M. tuberculosis

SMILES | MIC NR at 0.01 Inoc. and 3 Day Exposure to Drug, 7 Day Outgrowth [2, 6] | MIC NR at 0.01 Inoc. and 3 Day Exposure to Drug, 11 Day Outgrowth [2, 6] | HepG2 Toxicity LD50 ([1]; Table 8) | also measured
CC1=C(C(=O)OCc2ccccc2)N2C(=O)[C@@H](NC(=O)CCc3ccc(Cl)cc3)[C@H]2SC1 [Compound 100] |  |  |  | HepG2 Toxicity LD50 ([1]; human, 2 day): 50 µg/mL; MIC [2, 4]: 0.39 µg/mL (≈ 0.828 µM); MIC [2, 5]: 0.78 µg/mL (≈ 1.66 µM)
CCCOC(=O)C1=C(C)CS[C@@H]2[C@H](NC(=O)CCc3ccc(OC)cc3)C(=O)N12 [Compound 51] | 0.10 µg/mL (≈ 0.239 µM) | 0.10 µg/mL (≈ 0.239 µM) |  | 
C#CCOC(=O)C1=C(C)CS[C@@H]2[C@H](NC(=O)COc3ccc(Cl)cc3)C(=O)N12 [Compound 88] | 0.78 µg/mL (≈ 1.85 µM) | 1.56 µg/mL (≈ 3.71 µM) | 100 µg/mL | 
CCOC(=O)C1=C(C)CS[C@@H]2[C@H](NC(=O)CCc3ccccc3)C(=O)N12 [Compound 49] | 0.20 µg/mL (≈ 0.534 µM) | 0.39 µg/mL (≈ 1.04 µM) | >100 µg/mL | 
C#CCCC(=O)N[C@@H]1C(=O)N2C(C(=O)OCCC)=C(C)CS[C@H]12 [Compound 34] | 1.56 µg/mL (≈ 4.64 µM) | 3.13 µg/mL (≈ 9.3 µM) | >100 µg/mL | 
CCCNC(=O)C1=C(C)CS[C@@H]2[C@H](NC(=O)CCc3ccc(OC)cc3)C(=O)N12 [Compound 117] |  |  |  | HepG2 LD50 ([1]; human, 2 day): >100 µg/mL; MIC ([3]; Table 9, read-out: MIC R): > 100 µg/mL; MIC [2, 7]: 100 µg/mL (≈ 240 µM); MIC [2, 8]: > 100 µg/mL
CCOC(=O)C1=C(C)CS[C@@H]2[C@H](NC(=O)COc3ccccc3)C(=O)N12 [Compound 40] | 0.39 µg/mL (≈ 1.04 µM) | 0.78 µg/mL (≈ 2.07 µM) | >100 µg/mL | 
CCCOC(=O)C1=C(C)CS[C@@H]2[C@H](NC(=O)CCc3ccc(Cl)cc3)C(=O)N12 [Compound 54] | 0.20 µg/mL (≈ 0.473 µM) | 0.39 µg/mL (≈ 0.922 µM) | >100 µg/mL | 
CC1=C(C(=O)O)N2C(=O)[C@@H](NC(=O)CCc3ccc(Br)cc3)[C@H]2SC1 [Compound 111] |  |  |  | HepG2 LD50 ([1]; human, 2 day): >100 µg/mL; MIC ([3]; Table 9, read-out: MIC R): 100 µg/mL (≈ 235 µM); MIC [2, 7]: > 100 µg/mL; MIC [2, 8]: > 100 µg/mL
CC1=C(C(=O)OCc2ccccc2)N2C(=O)[C@@H](NC(=O)COc3ccc(Cl)cc3)[C@H]2SC1 [Compound 102] |  |  |  | HepG2 Toxicity LD50 ([1]; human, 2 day): >100 µg/mL; MIC [2, 4]: 0.78 µg/mL (≈ 1.65 µM); MIC [2, 5]: 1.56 µg/mL (≈ 3.3 µM)
CCCOC(=O)C1=C(C)CS[C@@H]2[C@H](NC(=O)COc3ccc(OC)cc3)C(=O)N12 [Compound 42] | 0.20 µg/mL (≈ 0.476 µM) | 0.39 µg/mL (≈ 0.927 µM) | >100 µg/mL | 
COc1ccc(CCC(=O)N[C@@H]2C(=O)N3C(C(=O)O)=C(C)CS[C@H]23)cc1 [Compound 108] |  |  |  | HepG2 LD50 ([1]; human, 2 day): >100 µg/mL; MIC ([3]; Table 9, read-out: MIC R): > 100 µg/mL; MIC [2, 7]: > 100 µg/mL; MIC [2, 8]: > 100 µg/mL
C#CCOC(=O)C1=C(C)CS[C@@H]2[C@H](NC(=O)CCc3ccc(Cl)cc3)C(=O)N12 [Compound 97] | 0.39 µg/mL (≈ 0.931 µM) | 0.78 µg/mL (≈ 1.86 µM) | 100 µg/mL | 
CCOC(=O)C1=C(C)CS[C@@H]2[C@H](NC(=O)COc3ccc(Cl)cc3)C(=O)N12 [Compound 46] | 0.39 µg/mL (≈ 0.949 µM) | 078 µg/mL (≈ 190 µM) | 50 µg/mL | 
CC1=C(C(=O)O)N2C(=O)[C@@H](NC(=O)c3ccc(Cl)cc3)[C@H]2SC1 [Compound 114] |  |  |  | HepG2 LD50 ([1]; human, 2 day): >100 µg/mL; MIC ([3]; Table 9, read-out: MIC R): > 100 µg/mL; MIC [2, 7]: > 100 µg/mL; MIC [2, 8]: > 100 µg/mL
CCCOC(=O)C1=C(C)CS[C@@H]2[C@H](NC(=O)CCc3ccccc3)C(=O)N12 [Compound 48] | 0.10 µg/mL (≈ 0.257 µM) | 0.20 µg/mL (≈ 0.515 µM) | >100 µg/mL | 
CCCCOC(=O)C1=C(C)CS[C@@H]2[C@H](NC(=O)COc3ccccc3)C(=O)N12 [Compound 118] |  |  |  | MIC [3, 9]: 100 µg/mL (≈ 247 µM); MIC [2, 10]: 3.1 µg/mL (≈ 7.66 µM)

SMILES | MIC NR at 0.01 Inoc. and 3 Day Exposure to Drug, 7 Day Outgrowth [2, 6] | MIC NR at 0.01 Inoc. and 3 Day Exposure to Drug, 11 Day Outgrowth [2, 6] | HepG2 Toxicity LD50 ([1]; Table 8) | also measured
COc1ccc(CCC(=O)N[C@@H]2C(=O)N3C(C(=O)OCc4ccccc4)=C(C)CS[C@H]23)cc1 [Compound 101] |  |  |  | HepG2 Toxicity LD50 ([1]; human, 2 day): >100 µg/mL; MIC [2, 4]: 0.39 µg/mL (≈ 0.836 µM); MIC [2, 5]: 0.78 µg/mL (≈ 1.67 µM)
CCCCOC(=O)C1C(C)=CS[C@@H]2[C@H](NC(=O)COc3ccccc3)C(=O)N12 (stereo partly shown) [Compound 119] |  |  |  | MIC [3, 9]: 100 µg/mL (≈ 247 µM); MIC [2, 10]: 3.1 µg/mL (≈ 7.66 µM)
CCOC(=O)C1=C(C)CS[C@@H]2[C@H](NC(=O)CCc3ccc(OC)cc3)C(=O)N12 [Compound 52] | 0.20 µg/mL (≈ 0.494 µM) | 0.39 µg/mL (≈ 0.964 µM) | >100 µg/mL | 
C#CCOC(=O)C1=C(C)CS[C@@H]2[C@H](NC(=O)COc3ccccc3)C(=O)N12 [Compound 82] | 1.56 µg/mL (≈ 4.04 µM) | 3.13 µg/mL (≈ 8.1 µM) | >100 µg/mL | 
C#CCOC(=O)C1=C(C)CS[C@@H]2[C@H](N(CC#C)CC#C)C(=O)N12 [Compound 106] |  |  |  | HepG2 Toxicity LD50 ([1]; human, 2 day): 100 µg/mL; MIC [2, 4]: 12.5 µg/mL (≈ 38.1 µM); MIC [2, 5]: 25 µg/mL (≈ 76.1 µM)
CCCOC(=O)C1=C(C)CS[C@@H]2[C@H](NC(=O)COc3ccc(Cl)cc3)C(=O)N12 [Compound 45] | 0.39 µg/mL (≈ 0.918 µM) | 0.39 µg/mL (≈ 0.918 µM) | 100 µg/mL | 
CCOC(=O)C1=C(C)CS[C@@H]2[C@H](NC(=O)COc3ccc(OC)cc3)C(=O)N12 [Compound 43] | 0.39 µg/mL (≈ 0.96 µM) | 1.56 µg/mL (≈ 3.84 µM) | >100 µg/mL | 
COc1ccc(OCC(=O)N[C@@H]2C(=O)N3C(C(=O)OCc4ccccc4)=C(C)CS[C@H]23)cc1 [Compound 103] |  |  |  | HepG2 Toxicity LD50 ([1]; human, 2 day): >100 µg/mL; MIC [2, 4]: 0.78 µg/mL (≈ 1.66 µM); MIC [2, 5]: 1.56 µg/mL (≈ 3.33 µM)
C#CCOC(=O)C1=C(C)CS[C@@H]2[C@H](NC(=O)COc3ccc(OC)cc3)C(=O)N12 [Compound 85] | 0.78 µg/mL (≈ 1.87 µM) | 1.56 µg/mL (≈ 3.75 µM) | >100 µg/mL | 
C=CC1=C(C(=O)O)N2C(=O)[C@@H](NC(=O)/C(=N\O)c3csc(N)n3)[C@H]2SC1 [Compound 107] |  |  |  | HepG2 Toxicity LD50 ([1]; human, 2 day): >100 µg/mL; MIC [2, 4]: 50 µg/mL (≈ 126 µM); MIC [2, 5]: 50 µg/mL (≈ 126 µM)
CCOC(=O)C1=C(C)CS[C@@H]2[C@H](NC(=O)CCc3ccc(Cl)cc3)C(=O)N12 [Compound 55] | 0.20 µg/mL (≈ 0.489 µM) | 0.39 µg/mL (≈ 0.954 µM) | >100 µg/mL | 
CCCOC(=O)C1=C(C)CS[C@@H]2[C@H](NC(=O)CCc3ccc(OC)cc3)C(=O)N12 [Compound 99] |  |  |  | HepG2 Toxicity LD50 ([1]; human, 2 day): >100 µg/mL; MIC [2, 4]: 0.1 µg/mL (≈ 0.239 µM); MIC [2, 5]: 0.2 µg/mL (≈ 0.478 µM)
C#CCOC(=O)N[C@@H]1C(=O)N2C(C(=O)OCC#C)=C(C)CS[C@H]12 [Compound 105] |  |  |  | HepG2 Toxicity LD50 ([1]; human, 2 day): >100 µg/mL; MIC [2, 4]: 6.25 µg/mL (≈ 18.7 µM); MIC [2, 5]: 12.5 µg/mL (≈ 37.4 µM)
C#CCOC(=O)C1=C(C)CS[C@@H]2[C@H](NC(=O)CCc3ccccc3)C(=O)N12 [Compound 91] | 0.78 µg/mL (≈ 2.03 µM) | 1.56 µg/mL (≈ 4.06 µM) | >100 µg/mL | 
CCCCOC(=O)C1C(C)=CS[C@@H]2[C@H](NC(=O)COc3ccccc3)C(=O)N12 (stereo partly shown) [Compound 98] |  |  |  | HepG2 Toxicity LD50 ([1]; human, 2 day): 100 µg/mL; MIC [2, 4]: 0.39 µg/mL (≈ 0.964 µM); MIC [2, 5]: 0.39 µg/mL (≈ 0.964 µM)
CC1=C(C(=O)OCc2ccccc2)N2C(=O)[C@@H](NC(=O)COc3ccccc3)[C@H]2SC1 [Compound 104] |  |  |  | HepG2 Toxicity LD50 ([1]; human, 2 day): >100 µg/mL; MIC [2, 4]: 1.56 µg/mL (≈ 3.56 µM); MIC [2, 5]: 3.13 µg/mL (≈ 7.14 µM)
C#CCOC(=O)C1=C(C)CS[C@@H]2[C@H](NC(=O)CCc3ccc(OC)cc3)C(=O)N12 [Compound 94] | 0.78 µg/mL (≈ 1.88 µM) | 1.56 µg/mL (≈ 3.76 µM) | >100 µg/mL | 

Reference: patent US10059722B2, “Cephalosporin derivatives and methods of use” (priority 2012, dated 2018)
